Reference: patent EP0908183A1, “Dehydroepiandrosterone or derivatives thereof for increasing the content of hyaluronic acid in skin” (INSTITUTE FOR ADVANCED SKIN RESEARCH INC., priority 1997, dated 1999)

Tests used:
[1] = acute toxicity tests with mice; conditions: mouse, in vivo
Description: It was confirmed that dehydroepiandrosterone (DHEA), which is used as an active ingredient in the present invention, was effective in increasing the hyaluronic acid content of skin to prevent and treat the symptoms of aging of skin. It was also confirmed that dehydroepiandrosterone was effective in inhibiting scar formation during the healing of an injury to skin. In addition, unlike retinoic acid which is teratogenic and estrogens that induce cardiovascular disorders, DHEA in its stable sulfate form has been commercialized as a drug that aids the process of childbirth and is used in clinical applications.

[2] = system: content of hyaluronic acid in skin; test: content of hyaluronic acid in skin of aging mice after application to dorsal skin; assay type: in vivo; conditions: aging mice Balb/c; for efficacy in increasing the content of hyaluronic acid in skin when combined with alimidex: DHEA administered simultaneously with aromatase inhibitor alimidex
Description: Dehydroepiandrosterone (DHEA) as an ethanol solution at a concentration of 10^-1M was applied to skin of the dorsal part of aging mice (Balb/c, 48 weeks old, in each group consisting of 6 animals) for 5 weeks.
To evaluate the reproducibility of its efficacy, DHEA was applied in various concentrations of 10^-1, 10^-2 and 10^-3M to aging mice (Balb/c, 53 weeks, in each group consisting of 8 animals). Further, in order to see whether DHEA became effective only after it was metabolized to estrodiol, alimidex that inhibited aromatase, which is an enzyme for causing a conversion to estrogens, was administered simultaneously with DHEA. […] This means the concentration of DHEA can be lowered to a tenth of the initial value.

Row | SMILES | LD50 ([1]; iv, injected intravenously) [mg/kg] | LD50 ([1]; po, peroral) [mg/kg] | LD50 ([1]; sc, injected subcutaneously) [mg/kg] | content of hyaluronic acid in skin ([2]; 10^-1M, 53 weeks, reproducibility experiment, Fig. 2) | content of hyaluronic acid in skin ([2]; 10^-2M, 53 weeks, reproducibility experiment, Fig. 2) | efficacy in increasing the content of hyaluronic acid in skin when combined with alimidex ([2]; 53 weeks, Fig. 2) | efficacy in increasing the content of hyaluronic acid in skin when combined with alimidex ([2]; 53 weeks, Fig. 2, listed as dehydroepiandrosterone) | content of hyaluronic acid in skin ([2]; ethanol solution 10^-1M applied to dorsal skin for 5 weeks, 48 weeks old, vs control group, Fig. 1) | content of hyaluronic acid in skin ([2]; aromatase inhibitor applied alone, 53 weeks, Fig. 2)
1 | C[C@]12CC[C@H](O)CC1=CC[C@@H]1[C@@H]2CC[C@]2(C)C(=O)CC[C@@H]12 [DHEA, dehydroepiandrosterone] | 274 | ≥ 10000 | 899 | statistically significant increase | statistically significant increase | not suppressed | not lowered | increased the content of hyaluronic acid in skin with a statistically significant difference from the control group | –
2 | CC(C)(C#N)c1cc(Cn2cncn2)cc(C(C)(C)C#N)c1 [alimidex, reference compound] | – | – | – | – | – | – | – | – | no ability to increase the content of hyaluronic acid
